Measurements published in PubChem BioAssay (NCI).
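A five-concentration, 48-hour dose response in 96-well plates underlies each endpoint, interpolated linearly between surrounding concentrations. Definition used: TGI = concentration required for complete inhibition of growth.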

Tests used:
Assay in all cases: NCI tumour cell line growth inhibition, 48 h
HCT-116 colon = system: HCT-116 colon
COLO 205 colon = system: COLO 205 colon
OVCAR-8 ovarian = system: OVCAR-8 ovarian
LOX IMVI melanoma = system: LOX IMVI melanoma
K-562 leukemia = system: K-562 leukemia
SF-539 CNS = system: SF-539 CNS
MALME-3M melanoma = system: MALME-3M melanoma
KM12 colon = system: KM12 colon
RPMI-8226 leukemia = system: RPMI-8226 leukemia
MDA-MB-231 breast = system: MDA-MB-231 breast

N#CN=C(N(Cc1ccccc1)Cc1ccccc1)N(Cc1ccccc1)Cc1ccccc1
TGI (HCT-116 colon): > 100 µM | TGI (COLO 205 colon): > 100 µM | TGI (OVCAR-8 ovarian): > 100 µM | TGI (LOX IMVI melanoma): > 100 µM | TGI (K-562 leukemia): > 100 µM | TGI (SF-539 CNS): > 100 µM | TGI (MALME-3M melanoma): > 100 µM | TGI (KM12 colon): > 100 µM | TGI (RPMI-8226 leukemia): > 100 µM

Oc1cccc2c(Cl)ccnc12
TGI (HCT-116 colon): 15.2 µM | TGI (COLO 205 colon): 32.6 µM | TGI (MDA-MB-231 breast): 97.5 µM | TGI (OVCAR-8 ovarian): > 100 µM | TGI (LOX IMVI melanoma): 19.6 µM | TGI (K-562 leukemia): 5.96 µM | TGI (SF-539 CNS): > 60.5 µM | TGI (MALME-3M melanoma): 25.4 µM | TGI (KM12 colon): 82.3 µM

O=C(O)c1cccc2c1/C(=N/Nc1ccccc1)CC2
TGI (HCT-116 colon): > 100 µM | TGI (MDA-MB-231 breast): > 100 µM | TGI (OVCAR-8 ovarian): > 100 µM | TGI (LOX IMVI melanoma): > 100 µM | TGI (K-562 leukemia): > 100 µM | TGI (SF-539 CNS): > 100 µM | TGI (KM12 colon): > 100 µM | TGI (RPMI-8226 leukemia): > 100 µM

CC[C@@]1(C[C@H]2C[C@@]3(C(=O)OC)c4[nH]c5ccccc5c4CCN3C2=O)COC2(CCCCC2)O1
TGI (HCT-116 colon): > 100 µM | TGI (COLO 205 colon): > 100 µM | TGI (MDA-MB-231 breast): > 100 µM | TGI (OVCAR-8 ovarian): > 100 µM | TGI (LOX IMVI melanoma): > 100 µM | TGI (K-562 leukemia): > 100 µM | TGI (SF-539 CNS): > 100 µM | TGI (MALME-3M melanoma): > 100 µM | TGI (KM12 colon): 66.9 µM

O=C(CCC(=O)c1ccc(Cl)cc1)NO
TGI (HCT-116 colon): > 100 µM | TGI (COLO 205 colon): > 100 µM | TGI (MDA-MB-231 breast): > 100 µM | TGI (OVCAR-8 ovarian): > 100 µM | TGI (LOX IMVI melanoma): > 100 µM | TGI (K-562 leukemia): > 100 µM | TGI (SF-539 CNS): > 100 µM | TGI (KM12 colon): > 100 µM | TGI (RPMI-8226 leukemia): > 100 µM

C[C@]12CC[C@H](O)CC1=CC[C@@H]1C2CC[C@]2(C)C(=O)N(N)C(=O)CC12 (some centres not stated)
TGI (HCT-116 colon): > 100 µM | TGI (COLO 205 colon): > 100 µM | TGI (OVCAR-8 ovarian): > 100 µM | TGI (LOX IMVI melanoma): > 100 µM | TGI (K-562 leukemia): > 100 µM | TGI (SF-539 CNS): > 100 µM | TGI (MALME-3M melanoma): > 100 µM | TGI (KM12 colon): > 100 µM | TGI (RPMI-8226 leukemia): > 100 µM

CCNC(=S)N/N=C/c1cc([N+](=O)[O-])ccc1O
TGI (HCT-116 colon): 40.8 µM | TGI (COLO 205 colon): > 100 µM | TGI (MDA-MB-231 breast): > 100 µM | TGI (OVCAR-8 ovarian): > 100 µM | TGI (LOX IMVI melanoma): > 100 µM | TGI (K-562 leukemia): > 100 µM | TGI (SF-539 CNS): > 100 µM | TGI (MALME-3M melanoma): > 100 µM | TGI (KM12 colon): > 100 µM

CC(N)Cc1ccc(C(=O)Cl)cc1 (configuration not stated)
TGI (HCT-116 colon): > 100 µM | TGI (COLO 205 colon): > 100 µM | TGI (OVCAR-8 ovarian): > 100 µM | TGI (LOX IMVI melanoma): > 100 µM | TGI (K-562 leukemia): > 100 µM | TGI (SF-539 CNS): > 100 µM | TGI (MALME-3M melanoma): > 100 µM | TGI (KM12 colon): > 100 µM | TGI (RPMI-8226 leukemia): > 100 µM

COc1cc([C@@H]2OCC3C(c4ccc5c(c4)OCO5)OCC32)cc(OC)c1OC (some centres not stated)
TGI (HCT-116 colon): > 100 µM | TGI (COLO 205 colon): > 100 µM | TGI (OVCAR-8 ovarian): > 100 µM | TGI (LOX IMVI melanoma): > 100 µM | TGI (K-562 leukemia): > 100 µM | TGI (SF-539 CNS): > 100 µM | TGI (MALME-3M melanoma): > 100 µM | TGI (KM12 colon): > 100 µM | TGI (RPMI-8226 leukemia): > 100 µM

CC1=C(C)[C@@]2(C)O[C@@]2(C)O[C@@]2(C)O[C@@]12C
TGI (HCT-116 colon): > 100 µM | TGI (COLO 205 colon): > 100 µM | TGI (MDA-MB-231 breast): > 100 µM | TGI (OVCAR-8 ovarian): > 100 µM | TGI (LOX IMVI melanoma): > 100 µM | TGI (K-562 leukemia): > 100 µM | TGI (MALME-3M melanoma): > 100 µM | TGI (KM12 colon): > 100 µM

C=C(Br)C(C)(Cl)CCC(Br)C(C)(C)Cl (configuration not stated)
TGI (HCT-116 colon): > 100 µM | TGI (COLO 205 colon): 64.6 µM | TGI (MDA-MB-231 breast): > 100 µM | TGI (OVCAR-8 ovarian): > 100 µM | TGI (LOX IMVI melanoma): 38 µM | TGI (K-562 leukemia): > 100 µM | TGI (SF-539 CNS): > 100 µM | TGI (MALME-3M melanoma): 57.8 µM | TGI (KM12 colon): > 100 µM

Cc1cn(C2CC(N(O)C(N)=O)C(CO)O2)c(=O)[nH]c1=O (configuration not stated)
TGI (HCT-116 colon): > 100 µM | TGI (COLO 205 colon): > 100 µM | TGI (MDA-MB-231 breast): > 100 µM | TGI (OVCAR-8 ovarian): > 100 µM | TGI (K-562 leukemia): > 100 µM | TGI (SF-539 CNS): > 100 µM | TGI (MALME-3M melanoma): > 100 µM | TGI (KM12 colon): > 100 µM | TGI (RPMI-8226 leukemia): > 100 µM

C=C(C1=CC(=O)C(C)(C)O1)[C@@H]1CC=C([C@@H]2CC[C@H]3[C@@]2(C)CC[C@H]2C(C)(C)C(=O)[C@H](O)C[C@]32C)[C@H](O)O1
TGI (HCT-116 colon): 3 µM | TGI (COLO 205 colon): 3.51 µM | TGI (MDA-MB-231 breast): 4.74 µM | TGI (OVCAR-8 ovarian): 4.75 µM | TGI (LOX IMVI melanoma): 3.45 µM | TGI (K-562 leukemia): 8.01 µM | TGI (SF-539 CNS): 2.73 µM | TGI (MALME-3M melanoma): 5.27 µM | TGI (KM12 colon): 20.4 µM

Cc1cc(=O)[nH]c(NN2C(Cl)C(=O)C2c2ccccc2O)n1 (configuration not stated)
TGI (HCT-116 colon): > 42.7 µM | TGI (COLO 205 colon): > 76.8 µM | TGI (MDA-MB-231 breast): > 100 µM | TGI (OVCAR-8 ovarian): > 100 µM | TGI (LOX IMVI melanoma): > 100 µM | TGI (K-562 leukemia): > 100 µM | TGI (SF-539 CNS): > 58.6 µM | TGI (KM12 colon): > 100 µM | TGI (RPMI-8226 leukemia): > 63.2 µM

FC(F)(F)c1cc(Cl)cnc1N/N=C(/c1ccccc1)c1ccccn1
TGI (HCT-116 colon): 19.2 µM | TGI (COLO 205 colon): > 100 µM | TGI (MDA-MB-231 breast): 40.2 µM | TGI (OVCAR-8 ovarian): 5.06 µM | TGI (K-562 leukemia): 49.9 µM | TGI (SF-539 CNS): 12.9 µM | TGI (KM12 colon): 30.1 µM | TGI (RPMI-8226 leukemia): > 100 µM

COc1ccc(/C=C2\CCC(C)C3=C2NC(=S)NC3c2ccc(OC)c(OC)c2)cc1OC (configuration not stated)
TGI (HCT-116 colon): > 31.6 µM | TGI (COLO 205 colon): 24.7 µM | TGI (MDA-MB-231 breast): > 31.6 µM | TGI (OVCAR-8 ovarian): > 90.2 µM | TGI (LOX IMVI melanoma): > 31.6 µM | TGI (K-562 leukemia): > 31.6 µM | TGI (SF-539 CNS): > 31.6 µM | TGI (KM12 colon): > 31.6 µM | TGI (RPMI-8226 leukemia): > 31.6 µM

Cc1cc(O)c2c(=O)c3ccccc3[nH]c2c1
TGI (HCT-116 colon): 65.2 µM | TGI (COLO 205 colon): 42 µM | TGI (MDA-MB-231 breast): > 100 µM | TGI (OVCAR-8 ovarian): 70.2 µM | TGI (LOX IMVI melanoma): 64.3 µM | TGI (SF-539 CNS): 33 µM | TGI (MALME-3M melanoma): > 100 µM | TGI (KM12 colon): > 100 µM | TGI (RPMI-8226 leukemia): 41 µM

COC(=O)[C@H]1CO[C@@H](C(C)(C)C)N1C(=O)N1C=CC(=O)C[C@@H]1C
TGI (HCT-116 colon): > 100 µM | TGI (COLO 205 colon): > 100 µM | TGI (MDA-MB-231 breast): > 100 µM | TGI (OVCAR-8 ovarian): > 100 µM | TGI (LOX IMVI melanoma): > 100 µM | TGI (K-562 leukemia): > 100 µM | TGI (MALME-3M melanoma): > 100 µM | TGI (KM12 colon): > 100 µM | TGI (RPMI-8226 leukemia): > 100 µM

O=C1c2ccccc2C2C1N2C(=O)C(F)(F)F (configuration not stated)
TGI (HCT-116 colon): > 100 µM | TGI (COLO 205 colon): > 100 µM | TGI (OVCAR-8 ovarian): > 100 µM | TGI (LOX IMVI melanoma): > 100 µM | TGI (K-562 leukemia): > 100 µM | TGI (SF-539 CNS): > 100 µM | TGI (MALME-3M melanoma): > 100 µM | TGI (KM12 colon): > 100 µM | TGI (RPMI-8226 leukemia): > 100 µM

CNC(=O)C(C)C1CCC2(C)C=CC(=O)C(C)=C2C1O (configuration not stated)
TGI (HCT-116 colon): > 100 µM | TGI (COLO 205 colon): > 64.7 µM | TGI (OVCAR-8 ovarian): > 87.9 µM | TGI (LOX IMVI melanoma): > 100 µM | TGI (K-562 leukemia): > 100 µM | TGI (SF-539 CNS): > 100 µM | TGI (KM12 colon): > 100 µM | TGI (RPMI-8226 leukemia): > 100 µM

COc1ccc2c(=O)c(O)c(-c3ccc(OC)c(OC)c3)oc2c1
TGI (HCT-116 colon): > 100 µM | TGI (COLO 205 colon): > 100 µM | TGI (MDA-MB-231 breast): > 100 µM | TGI (OVCAR-8 ovarian): > 100 µM | TGI (LOX IMVI melanoma): > 100 µM | TGI (K-562 leukemia): > 100 µM | TGI (MALME-3M melanoma): > 100 µM | TGI (RPMI-8226 leukemia): > 100 µM

CCOc1cc2c(cc1O)/C(=N\OC)C[C@@H]1[C@@H]2CC[C@]2(C)[C@@H](O)CC[C@@H]12
TGI (HCT-116 colon): > 38.7 µM | TGI (COLO 205 colon): 40.8 µM | TGI (MDA-MB-231 breast): 44.7 µM | TGI (OVCAR-8 ovarian): 3.91 µM | TGI (LOX IMVI melanoma): 16.7 µM | TGI (K-562 leukemia): > 100 µM | TGI (MALME-3M melanoma): 34.7 µM | TGI (KM12 colon): 7.63 µM
